This is an account of results in ChEMBL document CHEMBL1821627, “Medicinal chemistry as a conduit for the modulation of quorum sensing” (J Med Chem, 2010).

Assay [1] deals with T1, Transcriptional activator protein LasR (Pseudomonas aeruginosa (strain ATCC 15692 / PAO1 / 1C / PRS 101 / LMG12228), UniProt P25084).
T1 sequence (P25084 whole entry): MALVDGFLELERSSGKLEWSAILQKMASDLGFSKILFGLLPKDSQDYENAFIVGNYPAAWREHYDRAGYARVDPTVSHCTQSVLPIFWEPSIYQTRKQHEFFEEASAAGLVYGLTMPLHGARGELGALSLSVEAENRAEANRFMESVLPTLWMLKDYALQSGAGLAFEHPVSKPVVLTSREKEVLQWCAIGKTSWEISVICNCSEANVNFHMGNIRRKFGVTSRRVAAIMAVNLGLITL
In words: Antagonist activity at Pseudomonas aeruginosa LasR receptor expressed in Escherichia coli in presence of 7.5 nM natural auto-inducer 3-oxo-C12-HSL. In kind it is functional.

In assay [2] the target is T2, Transcriptional activator protein LuxR (Aliivibrio fischeri, UniProt P12746).
T2 sequence (P12746 whole entry): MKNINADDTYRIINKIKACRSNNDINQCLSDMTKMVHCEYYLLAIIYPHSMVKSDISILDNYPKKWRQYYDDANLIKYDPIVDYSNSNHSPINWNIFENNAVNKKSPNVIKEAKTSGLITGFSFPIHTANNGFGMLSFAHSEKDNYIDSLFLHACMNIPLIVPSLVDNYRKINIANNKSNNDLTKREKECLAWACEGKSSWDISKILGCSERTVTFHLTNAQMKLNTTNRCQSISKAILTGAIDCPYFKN
The experiment in a line: Antagonist activity at Vibrio fischeri luxR receptor in presence of 5 uM 3-oxo-C6-HSL. In kind it is functional.

A short description of assay [3]: Inhibition of autoinducer-stimulated quorum sensing regulated bioluminescence in Vibrio fischeri by luminescence assay. On the set-up: species or system Aliivibrio fischeri.
The target of assay [4] is T3, Transcriptional activator protein TraR (Agrobacterium tumefaciens, UniProt P33905).
T3 sequence (P33905 whole entry): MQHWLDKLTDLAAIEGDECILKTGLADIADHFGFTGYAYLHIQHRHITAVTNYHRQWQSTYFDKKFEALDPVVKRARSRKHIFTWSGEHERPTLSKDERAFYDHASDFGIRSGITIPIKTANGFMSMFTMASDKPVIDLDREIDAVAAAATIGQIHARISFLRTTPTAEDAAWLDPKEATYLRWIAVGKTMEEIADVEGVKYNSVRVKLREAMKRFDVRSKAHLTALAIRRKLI
In words: Antagonist activity at Agrobacterium tumefaciens TraR receptor in presence of 100 nM 3-oxo-C8-HSL. It is filed as functional.

The subject of the next assay is Vibrio harveyi. In words: Induction of quorum sensing regulated bioluminescence in Vibrio harveyi by luminescence assay.
For assay [5], the target named is T1, Transcriptional activator protein LasR. In words: Agonist activity at Pseudomonas aeruginosa LasR receptor expressed in Escherichia coli in absence of natural autoinducer. In kind it is functional.
Assay [6] shares this target. The experiment in a line: Agonist activity at Pseudomonas aeruginosa LasR cognate receptor expressed in Escherichia coli harboring pKDT17 assessed as activation of lasB expression by LacZ reporter gene assay. It is filed as functional.
Assay [7] in a line: Inhibition of quorum sensing Salmonella Typhimurium by beta-galactosidase transcription assay in presence of 50 uM DPD. On the set-up: species or system Salmonella enterica subsp. enterica serovar Typhimurium.
Assay [8] deals with Salmonella enterica subsp. enterica serovar Typhimurium. In words: Ratio of compound IC50 to DPD IC50 for Salmonella Typhimurium quorum sensing system.
The nature of assay [9]: Inhibition of quorum sensing in Pseudomonas aeruginosa assessed as inhibition of LasR-dependent yellow fluorescent protein emission by luminescence assay.
Another assay concerns Aliivibrio fischeri. The experiment in a line: Induction of quorum sensing regulated bioluminescence in Vibrio fischeri by luminescence assay relative to natural autoinducer.
Assay [10] has as its target T2, Transcriptional activator protein LuxR. In words: Agonist activity at Vibrio fischeri luxR receptor in absence of natural autoinducer. It is filed as functional.
For a further assay, the system named is PC-3. The experiment in a line: Growth inhibition of human PC3 cells. It is filed as functional, cell-based.
The nature of assay [11]: Inhibition of Staphylococcus aureus Quorum sensing system AgrC-III activation after 60 to 90 minutes by […].
Assay [12] can be described thus: Inhibition of Staphylococcus aureus Quorum sensing system AgrC-IV activation after 60 to 90 minutes by beta-lactamase reporter assay. In general terms: Reporter assays use an easily measured gene product as a stand-in for the process of interest.
Assay [13] in a line: Inhibition of Staphylococcus aureus Quorum sensing system AgrC-II activation after 60 to 90 minutes by beta-lactamase reporter assay. As to conditions: read-out: IC50.
Assay [14] in a line: Inhibition of Staphylococcus aureus Quorum sensing system AgrC-I activation after 60 to 90 minutes by beta-lactamase reporter assay. As to conditions: read-out: IC50.

Where a SMILES comes first, the peptide text is derived from it. Bridges are numbered along the chain shown (N, C = ends).

The term IC50 denotes the midpoint of a concentration-inhibition curve. With `CCCCCCCCCC(=O)N[C@H]1CCOC1=O`, the IC50 in [1] was determined as 0.25 µM; in assay [2], 0.4 µM; in assay [3], 0.0392 µM; in assay [4], 1.05 µM. As a reminder, the EC50 is the midpoint of the concentration-response curve. `CC(=O)C(=O)[C@@H](O)CO`: in the assay on Vibrio harveyi, the EC50 is 3 µM. As for `CCCCCCCCCCCC(=O)CC(=O)N[C@H]1CCOC1=O`, the EC50 was 0.01 µM in assay [5] and 0.015 µM in [6].

For `CCCCC(=O)C(=O)[C@@H](O)CO`, the IC50 in [7] worked out at 5.04 µM. Besides, the Ratio IC50 in [8] is < 10. For `O=C(Nc1ccccc1NC(=O)c1cccc(Cl)c1)c1cccc(Cl)c1`, the IC50 in [9] worked out at 50 µM. On to `CC(=O)CCCC(=O)N[C@H]1CCOC1=O`, for which the Activity with Aliivibrio fischeri was determined as 10%. For `CCCCCCCCCCCCn1nnc(CC(=O)O)n1`, the concentration for half-maximal inhibition (IC50) in [9] turned out to be 0.03 µM. `O=C(Cc1cccc([N+](=O)[O-])c1)N[C@H]1CCOC1=O` registered a concentration giving a half-maximal response (EC50) in assay [10] of 0.35 µM. For the compound `O=C1[C@@H](O)COC1(O)C(F)(F)F` (some centres not stated), it took 30 µM to reach a half-maximal effect in the assay with Vibrio harveyi (EC50). On to `CCCC(=O)C(=O)[C@@H](O)CO`, for which, in [7], the IC50 was 5.3 µM. In addition, in assay [8], the Ratio IC50 is < 10.

In the case of `CCCCCCC(=O)N[C@H]1CCOC1=O`, the 50% inhibitory concentration (IC50) in [2] came out at 1.36 µM; in [4], 0.69 µM. With `O=C(CCCCCCCCCCCc1ccccc1)N[C@H]1CCOC1=O`, in the assay with PC-3, the IC50 is > 100 µM. For the compound `CCCCCC(=O)CC(=O)N[C@H]1CCOC1=O`, the Activity in the assay on Aliivibrio fischeri came to 50%. Moreover, in assay [6], the concentration giving a half-maximal response (EC50) amounted to 0.15 µM. As to `CCCCCCCCCNC(=O)CC(=O)c1ccccc1`, in assay [9], the IC50 worked out at 10 µM.

For the compound `CC(=O)N[C@H]1CSC(=O)[C@H](Cc2ccccc2)NC(=O)[C@H](CC(C)C)NC(=O)[C@H](CO)NC(=O)[C@H](CO)NC1=O` (Ac-CSSLF; thioester 1-C), the concentration for half-maximal inhibition (IC50) in [11] turned out to be 0.01 µM; in assay [12], 0.188 µM; in assay [13], 0.209 µM; in assay [14], 0.272 µM. The compound `O=C(CC(=O)N[C@H]1CCOC1=O)Cc1ccccc1` registered an EC50 in [5] of 0.54 µM.
